According to patent publication US20050100507A1, “Chemotactic peptide antagonists for imaging sites of inflammation” (Bracco Imaging S.p.A., priority 1998, published 2005):
Square brackets hold non-standard residues; d marks the D form. Ends that are not written are not given here. Peptide text beside a SMILES is read from it. * marks the point of attachment. 3‑but‑1‑enoxycarbonyl = 3-but-1-enoxycarbonyl (N-terminal capping group); 2‑quinoxazoyl = 2-quinoxazoyl (N-terminal capping group); N,N‑diphenylcarbamoyl = O=C(N(c1ccccc1)c1ccccc1)*; N‑phenyl‑N‑methylcarbamoyl = CN(C(=O)*)c1ccccc1; trans‑cinnamoyl = O=C(/C=C/c1ccccc1)*; Cyclopropanecarbonyl = O=C(C1CC1)*; iso‑Boc = not defined here; Nle = CCCC[C@H](N)C(=O)O; 2Furoyl = O=C(c1ccco1)*; Boc = CC(C)(C)OC(=O)*; For = O=C*

Columns and labels:
elicited rat PMNs [1] = format: cell-based; conditions: for % Control (1 uM) / % Control (10 uM): MPO release, PMNs without fMLF, ± S.E.M.; for % Control (1 uM): test peptide 1 uM; for % Control (10 uM): test peptide 10 uM; for EC50: 4 h
Method: (§1) Animals were sacrificed via administration of CO2 4 hours following peritoneal injection of 10 mL of 0.5% (w/v) oyster glycogen warmed to room temperature. Leukocyte harvesting via peritoneal lavage was performed using 20 mL of Hanks' buffered salt solution (HBSS−) containing 10 mM ethylene-diaminetetra-acetic acid (EDTA) disodium salt followed by a second lavage with 10 mL of HBSS− containing 10 mM EDTA. Exactly the same technique was performed on all rats with washes of the peritoneum prior to aspiration of samples approximating 1 minute. The volume of fluid recovered from each rat was approximately 20-25 mL and bloody lavages visibly containing significant red blood cell (RBC) populations were discarded.
(§2) Neutrophils isolated by peritoneal lavage were washed twice with 1 mL of HBSS− (without calcium chloride, magnesium chloride and magnesium sulfate) and centrifuged for ten minutes at 2000 rpms following each wash. PMNs utilized in functional assays were centrifuged at 25° C. while those used in binding assays were centrifuged at 4° C. to prevent internalization. A cold H2O RBC lysis was then performed with the addition of 9 mL of sterile ice-cold H2O and 1 mL of phosphate buffered saline (PBS) solution containing 0.1 M phosphate buffer, 0.027 M KCl and 1.37 M NaCl following resuspension of the sample in 1 mL of HBSS. Centrifugation was subsequently performed for ten minutes at 1600 rpms. White blood cell (WBC) differential stain containing saline, 2% acidic acid and phenol violet dye was used to identify the neutrophil population and trypan blue exclusion was used to determine viability of cells. As previously reported, 98% of leukocytes were neutrophils and approximately 95% of the cells were viable (Chen et al., 1996).
(§3) 0.5×10^6 PMNs per sample were incubated in 96-well Millipore Multiscreen 0.65 um filter plates. In a final volume of 150 uL, 50 uL of the respective fMLP analogues (10 uM to 1 pM) and/or fMLP (10 uM to 1.0 uM) were incubated with isolated PMNs pre-treated with cytochalasin B (5 ug/mL) for 10 minutes. Following a 30 minute incubation period at room temperature, the supernatant was collected into a 96-well polypropylene plate with the Millipore vacuum apparatus. A stock solution of o-phenylenediamine (OPD) was made to contain 2.5 mg of OPD, 5 ul of H2O2 and 10 mL HBSS+ and supernatant samples were subsequently incubated with 50 uL of OPD solution. The reaction was stopped after 2 minutes by the addition of 2.5M H2SO4. Photometric analysis was performed with the Thermomax Microplate Reader with optical density (O.D.490) values being read at a wavelength of 490 nm. Absorbance was measured against a blank containing 150 μl of HBSS+ which was subtracted from wells containing cells and the various treatments. MPO release was expressed as a percentage of the total release of myeloperoxidase in control wells containing cells ±fMLF.
(§4) The curve-fitting program Prism was used to calculate KD, IC50 and EC50 values by fitting data to the one-site binding equations A, B and C respectively. • A. Equation: One site binding (hyperbola) Y=Bmax*X/(KD+X) • B. Equation: One site competition Y=Bottom+(Top−Bottom)/(1+10^(X−LogIC50)); with x=log (concentration) and y=binding • C. […] Additionally, Graph fit software was used to perform Scatchard analysis of saturation binding data and to confirm KD and Bmax values generated by Prism software.

Rat FPR = biological target: T1, Rat FPR (Rattus norvegicus, UniProt D4A7Q2); assay: Competition binding with 6 nM 3H-fMLF to elicited rat PMNs; conditions: 6 nM 3H-fMLF, result in words; for competition binding of N-terminal modified NleLFK peptides (FIG. 8): peptides at 1 uM and 10 uM; for inhibition of 3H-fMLF binding at 10 uM compared with iso-BocMLFK (FIG. 8): peptide 10 uM
T1 construct: endogenous in cells; host or cells: glycogen-elicited peritoneal neutrophils (PMNs) of Sprague-Dawley rats
T1 sequence (D4A7Q2 1-355): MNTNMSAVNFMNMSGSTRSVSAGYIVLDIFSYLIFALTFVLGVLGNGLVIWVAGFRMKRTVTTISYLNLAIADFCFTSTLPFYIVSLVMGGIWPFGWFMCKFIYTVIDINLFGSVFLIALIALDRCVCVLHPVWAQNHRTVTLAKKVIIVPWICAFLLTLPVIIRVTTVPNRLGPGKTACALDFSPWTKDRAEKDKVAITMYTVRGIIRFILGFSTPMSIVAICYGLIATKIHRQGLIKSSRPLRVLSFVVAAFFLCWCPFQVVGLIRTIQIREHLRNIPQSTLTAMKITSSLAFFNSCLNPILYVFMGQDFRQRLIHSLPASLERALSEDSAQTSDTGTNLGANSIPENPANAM
Method: as §1, §2
Competition binding assays for N-terminal capping groups and Re-libraries were conducted with 6 nM ^3H-fMLP in addition to the unlabelled competing analogue added at 1.0 uM and 10 uM to each well. […] Total binding in the competition assays was assessed in the presence of 1.0×10^6 PMNs per sample while non-specific binding was determined in the absence of cells. Each condition was performed in quadruplicate. Total activity added to each sample was determined from cpms obtained from a sample containing 6 nM ^3H-fMLF. Data was expressed as specific binding in fmols and converted to percent of total ^3H-fMLF binding (% control).
After a 1 hour incubation period at 4° C., the samples were harvested with the Tomtec Mach III Cell Harvester by vacuum aspiration onto 1.5 um pore size Skatron glass-fibre filter mats pre-treated with 0.1% polyethylenimine (w/v) for approximately 24 hours. Sample wells received three consecutive 12 second washes with 0.9% saline solution and 5 mL of liquid scintillation fluid was added to collected filters. Filters were counted for 2 minutes in the Beckman β-counter following exposure to scintillation fluid for 15 hours. Data was expressed in terms of specific binding in fmols converted to percent of total ^3H-fMLF binding (% control).
as §4

elicited rat PMNs [2] = assay: Myeloperoxidase release in elicited rat PMNs co-stimulated with 0.1 uM fMLF; format: cell-based; conditions: for antagonist function on MPO release in fMLF stimulated rat PMNs: 0.1 uM fMLF, inhibition at 10 uM, result in words; for % Control MPO release (1 uM capping group + 0.1 uM fMLF): 1 uM test peptide + 0.1 uM fMLF; for % Control MPO release (1 uM capping group + 0.1 uM fMLF) / % Control MPO Release (10 uM capping group + 0.1 uM fMLF): ± S.E.M.; for % Control MPO Release (10 uM capping group + 0.1 uM fMLF): 10 uM test peptide + 0.1 uM fMLF
Method: as §1, §2
as §3, with “In a final volume of 150 uL, 50 uL of the respective fMLP analogues (10 uM to 1 pM) and/or fMLP (10 uM to 1.0 uM) were incubated with isolated PMNs pre-treated with cytochalasin B (5 ug/mL) for 10 minutes.” left out

Molecule | % Control (1 uM) (elicited rat PMNs [1]) | % Control (10 uM) (elicited rat PMNs [1]) | also measured
Capping Group 4: Phenylthioacetyl N-terminal capping group attached to peptide NleLFK (phenylthioacetyl-[Nle]LFK) | 138.7 ± 28.6 % control | 119.7 ± 20.3 % control | 
CSCC[C@H](NC=O)C(=O)N[C@@H](CC(C)C)C(=O)N[C@@H](Cc1ccccc1)C(=O)N[C@@H](CCCCN)C(=O)O [fMLFK, N-formyl-methionyl-leucyl-phenylalanyl-lysine, reference compound] (For-MLFK-OH) |  |  | EC50 (elicited rat PMNs [1]): 140 nM
Capping Group 10: N-phenyl-N-methylcarbamoyl N-terminal capping group attached to peptide NleLFK ({N‑phenyl‑N‑methylcarbamoyl}-[Nle]LFK) | 94.7 ± 20.4 % control | 68.0 ± 17.4 % control | competition binding of N-terminal modified NleLFK peptides (FIG. 8) (Rat FPR): did not significantly decrease the amount of ^3H-fMLF binding; antagonist function on MPO release in fMLF stimulated rat PMNs (elicited rat PMNs [2]): exhibited antagonist function in fMLF stimulated cells; % Control MPO release (1 uM capping group + 0.1 uM fMLF) (elicited rat PMNs [2]): 171.2 ± 6.3 % control; % Control MPO Release (10 uM capping group + 0.1 uM fMLF) (elicited rat PMNs [2]): 121.3 ± 23.9 % control
Capping Group 18: N,N-diphenylcarbamoyl N-terminal capping group attached to peptide NleLFK ({N,N‑diphenylcarbamoyl}-[Nle]LFK) | 142.7 ± 8.8 % control | 125.2 ± 1.5 % control | inhibition of 3H-fMLF binding at 10 uM compared with iso-BocMLFK (FIG. 8) (Rat FPR): inhibited ^3H-fMLF binding to a degree comparable with known antagonist iso-BocMLFK; competition binding of N-terminal modified NleLFK peptides (FIG. 8) (Rat FPR): do not nullify binding affinity; % Control MPO release (1 uM capping group + 0.1 uM fMLF) (elicited rat PMNs [2]): 321.6 ± 8.6 % control; % Control MPO Release (10 uM capping group + 0.1 uM fMLF) (elicited rat PMNs [2]): 185.9 ± 15.7 % control
cycloproylcarbonyl-NleLFK (Cyclopropanecarbonyl-[Nle]LFK) [Capping Group 17] | 108.0 ± 14.5 % control | 91.8 ± 16.3 % control | inhibition of 3H-fMLF binding at 10 uM compared with iso-BocMLFK (FIG. 8) (Rat FPR): inhibited ^3H-fMLF binding to a degree comparable with known antagonist iso-BocMLFK; competition binding of N-terminal modified NleLFK peptides (FIG. 8) (Rat FPR; listed as 17): do not nullify binding affinity; competition binding of N-terminal modified NleLFK peptides (FIG. 8) (Rat FPR; listed as cycloproylcarbonyl-NleLFK): inhibit ^3H-fMLF binding
iso-BocMLFK: known antagonist, fMLP peptide analogue synthesized in-house ({iso‑Boc}-MLFK; reading uncertain) [reference compound] | 99.6 ± 16.5 % control | 94.7 ± 20.2 % control | antagonist function on MPO release in fMLF stimulated rat PMNs (elicited rat PMNs [2]): significantly inhibiting fMLF-stimulated MPO release; % Control MPO release (1 uM capping group + 0.1 uM fMLF) (elicited rat PMNs [2]): 215.4 ± 66.3 % control; % Control MPO Release (10 uM capping group + 0.1 uM fMLF) (elicited rat PMNs [2]): 179.9 ± 50.6 % control
Capping Group 15: trans-cinnamoyl N-terminal capping group attached to peptide NleLFK ({trans‑cinnamoyl}-[Nle]LFK) | 133.1 ± 10.3 % control | 195.8 ± 14.3 % control | 
Capping Group 2: 2-methoxyacetyl N-terminal capping group attached to peptide NleLFK ({2‑methoxyacetyl}-[Nle]LFK) | 95.0 ± 15.7 % control | 97.1 ± 37.1 % control | 
Capping Group 3: Furoyl N-terminal capping group attached to peptide NleLFK (2Furoyl-[Nle]LFK) | 93.0 ± 9.0 % control | 102.5 ± 9.0 % control | 
Capping Group 14: 2-quinoxazoyl N-terminal capping group attached to peptide NleLFK ({2‑quinoxazoyl}-[Nle]LFK) | 117.2 ± 18.6 % control | 129.8 ± 6.0 % control | antagonist function on MPO release in fMLF stimulated rat PMNs (elicited rat PMNs [2]): significant inhibition; % Control MPO release (1 uM capping group + 0.1 uM fMLF) (elicited rat PMNs [2]): 323.2 ± 16.8 % control; % Control MPO Release (10 uM capping group + 0.1 uM fMLF) (elicited rat PMNs [2]): 239.8 ± 9.0 % control
Capping Group 7: 3-but-1-enoxycarbonyl N-terminal capping group attached to peptide NleLFK ({3‑but‑1‑enoxycarbonyl}-[Nle]LFK) | 133.8 ± 13.3 % control | 229.3 ± 13.3 % control | 
Capping Group 12: 2-acetamido-5-thiazolesulfonyl N-terminal capping group attached to peptide NleLFK ({2‑acetamido‑5‑thiazolesulfonyl}-[Nle]LFK) | 117.5 ± 7.8 % control | 175.5 ± 12.0 % control | 
N-t-BocMLFK: known antagonist used as standard in MPO release assay (Boc-MLFK) [reference compound] | 89.8 ± 32.5 % control | 86.7 ± 31.1 % control | 
CSCC[C@H](NC=O)C(=O)N[C@@H](CC(C)C)C(=O)N[C@@H](Cc1ccccc1)C(=O)O [fMLF, N-formyl-methionyl-leucyl-phenylalanine, reference compound] |  |  | EC50 (elicited rat PMNs [1]): 110 nM
